pIC50: −log10 of the molar value. Values after ≈ are worked out from the molar mass of the structure shown.
Experiments:
SF-268 = assay: Antiproliferative activity against human SF-268 cells assessed as inhibition of cell growth by MTT assay; type: functional; conditions: read-out: ED50 (the source's name)
ECV-304 [1] = assay: Cytotoxicity against human ECV-304 cells assessed as reduction in cell growth by measuring lethal concentration incubated for 72 hrs by MTT assay; type: functional; conditions: read-out: LC50 (the source's name)
[2] = Cytotoxicity against rat RT-2 cells assessed as reduction in cell growth by measuring lethal concentration incubated for 72 hrs by MTT assay; type: functional; conditions: RT2, read-out: LC50 (the source's name)
[3] = Antiproliferative activity against human SWO-38cells assessed as reduction in cell growth measured for 24 hrs by MTT assay; type: functional, cell-based; conditions: SWO-38, 24 h
U-251 [4] = assay: Antiproliferative activity against human U-251MG cells assessed as reduction in cell growth measured for 24 hrs by MTT assay; type: functional, cell-based; conditions: U-251, 24 h
ECV-304 [5] = assay: Cytotoxicity against human ECV-304 cells assessed as reduction in cell growth by measuring lethal concentration incubated for 24 hrs by MTT assay; type: functional; conditions: read-out: LC50 (the source's name)
U-87 MG [6] = assay: Antiproliferative activity against human U-87 MG cells assessed as reduction in cell growth measured for 24 hrs by MTT assay; type: functional, cell-based, U-87MG ATCC
[7] = Cytotoxicity against rat RT-2 cells assessed as reduction in cell growth by measuring lethal concentration incubated for 24 hrs by MTT assay; type: functional; conditions: RT2, read-out: LC50 (the source's name)
[8] = Antiproliferative activity against human TMZ-resistant A-172 cells assessed as reduction in cell growth incubated for 48 hrs by MTT assay; type: functional, cell-based; conditions: TMZ-resistant A-172 cell
T98G [9] = assay: Induction of apoptosis in human T98G cells assessed as fold increase in apoptosis at 10 uM under radiation measured after 24 hrs by annexin V and PI staining based flow cytometry analysis (Rvb=3.7); type: functional
[10] = Antiproliferative activity against human TMZ-sensitive U-251MG cells assessed as reduction in cell growth incubated for 48 hrs by MTT assay; type: functional, cell-based, TMZ-sensitive U-251MG cell; conditions: U-251, 48 h
HUVEC [11] = assay: Antivascular activity against HUVEC cells assessed as inhibition of capillary tube formation at 150 incubated for 6 hrs by microscopy based analysis relative to control; type: functional, Homo sapiens; parameters: scale not given: the % may be the effect or the level left
[12] = Antiproliferative activity against human TMZ-sensitive LN-229 cells assessed as reduction in cell growth incubated for 48 hrs by MTT assay; type: functional, cell-based, TMZ-sensitive LN-229 cell; conditions: LN-229, 48 h
HUVEC [13] = assay: Antivascular activity against HUVEC cells assessed as inhibition of capillary tube formation at 100 incubated for 6 hrs by microscopy based analysis relative to control; type: functional, Homo sapiens; parameters: scale not given: the % may be the effect or the level left
C6 [14] = assay: Antiproliferative activity against rat C6 cells assessed as reduction in cell growth measured for 96 hrs by WST-1 assay; type: functional, cell-based; conditions: C6, 96 h
[15] = Antiproliferative activity against human TMZ-sensitive A-172 cells assessed as reduction in cell growth incubated for 48 hrs by MTT assay; type: functional, cell-based, TMZ-sensitive A-172 cell; conditions: A 172, 48 h
[16] = Antitumor activity against mouse GL261 cells implanted in C57BL/6 mouse model assessed as increase in tumor growth delay without radiation at 150 mg/kg via oral gavage (reference value: 12.7+/-2.8 days); type: functional
HUVEC [17] = assay: Antivascular activity against HUVEC cells assessed as inhibition of capillary tube formation at 50 incubated for 6 hrs by microscopy based analysis relative to control; type: functional, Homo sapiens; parameters: scale not given: the % may be the effect or the level left
C6 [18] = assay: Antitumor activity against rat C6 cells implanted in athymic nude mouse assessed as reduction in tumor volume at 300 mg/kg, IC administered once daily for 21 days relative to control; type: functional; parameters: scale not given: the % may be the effect or the level left; conditions: time 21 day
C6 [19] = assay: Antitumor activity against rat C6 cells implanted in athymic nude mouse assessed as reduction in tumor volume at 300 mg/kg, sc administered once daily for 21 days relative to control; type: functional; parameters: scale not given: the % may be the effect or the level left; conditions: time 21 day
[20] = Downregulation of HIF-1alpha expression in human U-87 MG cells at 150 uM relative to control; type: functional, U-87MG ATCC
[21] = Antiproliferative activity against human TMZ-resistant LN-229 cells assessed as reduction in cell growth incubated for 48 hrs by MTT assay; type: functional, cell-based, TMZ-resistant LN-229 cell; conditions: LN-229, 48 h
[22] = Antiproliferative activity against human TMZ-resistant U-251MG cell assessed as reduction in cell growth incubated for 48 hrs by MTT assay; type: functional, cell-based; conditions: U-251, 48 h
U-118-MG = assay: Antiproliferative activity against human U-118-MG cells assessed as reduction in inhibition of cell growth incubated for 72 hrs by MTT assay; type: functional, cell-based
[23] = Downregulation of HIF-1alpha expression in human T98G cells at 150 uM relative to control; type: functional
LN-229 = assay: Antiproliferative activity against human LN-229 cells assessed as reduction in inhibition of cell growth incubated for 72 hrs by MTT assay; type: functional, cell-based; conditions: LN-229, 72 h
C6 [24] = assay: Anticancer activity against rat C6 cells assessed as reduction in cell growth at 10 ug/ml incubated for 24 hrs by MTT assay relative to control; type: functional
[25] = Antitumor activity against mouse GL261 cells implanted in C57BL/6 mouse model assessed as fold reduction in cell proliferation under radiation at 150 mg/kg via oral gavage (reference value: 3.3 fold); type: functional
U-87 MG [26] = assay: Antiproliferative activity against human U-87 MG cells assessed as reduction in inhibition of cell growth incubated for 72 hrs by MTT assay; type: functional, cell-based, U-87MG ATCC
T98G [27] = assay: Antiproliferative activity against human T98G cells assessed as reduction in inhibition of cell growth incubated for 72 hrs by MTT assay; type: functional, cell-based
[28] = Antitumor activity against mouse GL261 cells implanted in C57BL/6 mouse model assessed as increase in tumor growth delay under radiation at 150 mg/kg via oral gavage (reference value: 12.7+/-2.8 days); type: functional
[29] = Induction of apoptosis in human U373 MG cells at 1 uM relative to control; type: functional, U-373MG ATCC
[30] = Cytotoxicity against human U-343MG cells; type: functional, cell-based
U-251 [31] = assay: Cytotoxicity against human U-251MG cells assessed as reduction in cell growth; type: functional, cell-based
CAKI-1 = assay: Antitumor activity against human CAKI-1 cells xenografted in BALB/c athymic nude mouse assessed as inhibition of tumor growth at 5 mg/kg, po administered 5 times per week and measured for 3 times per week for 42 days relative to control; type: functional; conditions: CAKI-1, 1008 h, time 42 day, read-out: TGI
[32] = Anticancer activity against human U373 MG cells assessed as reduction in cell viability incubated for 72 hrs by MTT assay; type: functional, cell-based, U-373MG ATCC
U-251 [33] = assay: Antiproliferative activity against human U-251MG cells assessed as reduction in cell viability incubated for 48 hrs by SRB assay; type: functional, cell-based; conditions: U-251, 48 h
U-251 [34] = assay: Antitumor activity against human U-251MG cells xenografted in BALB/c nude mouse assessed as reduction in tumor growth at 4 mg/kg, ip administered once daily and measured after 28 days relative to control; type: functional; conditions: U-251, 672 h, time 28 day, read-out: TGI
U-251 [35] = assay: Antitumor activity against human U-251MG cells xenografted in BALB/c nude mouse assessed as reduction in tumor growth at 8 mg/kg, ip administered once daily and measured after 28 days relative to control; type: functional; conditions: U-251, 672 h, time 28 day, read-out: TGI
U-87 MG [36] = assay: Cytotoxicity against human U-87 MG cells assessed as reduction in cell growth measured for 48 hrs by MTT assay; type: functional, cell-based, U-87MG ATCC
U-251 [37] = assay: Cytotoxicity against human U-251MG cells assessed as reduction in cell growth measured for 48 hrs by MTT assay; type: functional, cell-based; conditions: U-251, 48 h

`O=C1N[C@@H]2C(=C[C@H](O)[C@@H](O)[C@H]2O)c2cc3c(c(O)c21)OCO3` [NARCICLASINE] showed an EC50 (SF-268) of 0.021 µg/mL (≈ 0.0683 µM).

Work on `COc1ccc2cc1Oc1ccc(cc1)C[C@H]1c3cc(c(OC)cc3CCN1C)Oc1c(OC)c(OC)cc3c1[C@H](C2)N(C)CC3` [FANCHININ] yielded a CC50 (ECV-304 [1]) of 25.1 µM, a CC50 [2] of 11.3 µM and an IC50 [3] of 50 µg/mL (≈ 80.4 µM). For the same molecule, the IC50 (U-251 [4]) was 56.1 µg/mL (≈ 90.1 µM), the CC50 (ECV-304 [5]) was 34.2 µM and the IC50 (U-87 MG [6]) was 10.8 µg/mL (≈ 17.4 µM). For the same molecule, the CC50 [7] was 22.6 µM.

With `COc1ccc2c(c1OC)C(=O)O[C@@H]2[C@H]1c2c(cc3c(c2OC)OCO3)CCN1C` [NOSCAPINE] the pIC50 [8] was 4.22, the “fold change (FC)” value (T98G [9]) was 6.4 and the pIC50 [10] was 4.40. The Activity (HUVEC [11]) was 40%, the pIC50 [12] was 4.15 and the Activity (HUVEC [13]) was 40%. The pIC50 (C6 [14]) was 3.60, the pIC50 [15] was 4.70 and the Time [16] was 8 days. For the same molecule, the Activity (HUVEC [17]) was 30%, the Activity (C6 [18]) was 78% and the Activity (C6 [19]) was 60%. It also gave an Activity [20] of 60%, a pIC50 [21] of 4.12 and a pIC50 [22] of 4.52. It also gave a pIC50 (U-118-MG) of 4.04, an Activity [23] of 90% and a pIC50 (LN-229) of 4.07. The inhibition at 10 µg/mL (C6 [24]) was 49%, the “fold change (FC)” value [25] was 5.6 and the pIC50 (U-87 MG [26]) was 3.88. It also gave a pIC50 (T98G [27]) of 4.01 and a Time [28] of 18 days.

In the case of `C=C[C@H]1CN2CCc3c([nH]c4c([C@@H]5CCCN5C)c(O)ccc34)[C@@H]2C[C@@H]1C[C@H]1c2[nH]c3ccccc3c2CCN1C`, the Activity [29] was 80% and the pIC50 [30] was about 6.00.

With `COc1ccc2c3c(c4cc(OC)c(OC)cc4c2c1)C[C@H]1CCCN1C3` [(-)-ANTOFINE] the pIC50 (U-251 [31]) was 6.68 and the inhibition in vivo at 5 mg/kg (CAKI-1) was 59%.

With `COc1cc2c(cc1O)CCN[C@]21CS[C@@H]2c3c(OC(C)=O)c(C)c4c(c3[C@@H](COC1=O)N1[C@@H]2[C@H]2c3c(cc(C)c(OC)c3O)C[C@@H]([C@@H]1C#N)N2C)OCO4` the pIC50 [32] was 8.51.

Molecule `O[C@H]1[C@H]2c3cc4c(cc3CN3CCC(=C[C@@H]1O)[C@H]23)OCO4` [LYCORINE] has a pIC50 (U-251 [33]) of 5.00.

For `c1ccc2c(c1)[nH]c1c2cc[n+]2cc3c(cc12)CCCC3`, the inhibition in vivo at 4 mg/kg (U-251 [34]) was 49.5%, the inhibition in vivo at 8 mg/kg (U-251 [35]) was 58.9% and the pIC50 (U-87 MG [36]) was 5.33. It also gave a pIC50 (U-251 [37]) of 5.30.
